Laboratory results published in PMC9241943, “LcCCL28-25, Derived from Piscine Chemokine, Exhibits Antimicrobial Activity against Gram-Negative and Gram-Positive Bacteria In Vitro and In Vivo” (Microbiology Spectrum, 2022).
≈ marks a conversion by molar mass, not a printed value. Structures can show the parent of a compound that is named as a salt. Residues, ends and D or L forms follow the SMILES beside them.

Tests used:
[1] = data not shown
[2] = tested on: Escherichia coli ATCC 25922; format: cell-based; settings: ATCC 25922, 2 h
Procedure: (§1) The MIC assays were performed as previously described ([43]). Briefly, peptides were plated in a 2-fold dilution series (50 μL/well) of Mueller-Hinton broth (MHB) in Costar 96-well cell culture plates (Corning, NY, USA). Three repeats were set for each concentration. E. coli ATCC 25922, A. hydrophila ATCC 7966, P. aeruginosa PAO1, P. aeruginosa FRD1, S. aureus ATCC 25923, S. agalactiae ATCC 13813, S. pneumoniae ATCC 49619, methicillin-resistant S. aureus ATCC 43300, and methicillin-resistant S. aureus USA300 were cultured in Luria-Bertani (LB) medium, while K. pneumoniae CMCC46117 was cultured in tryptic soy broth (TSB) medium. Incubation was done at 37°C and 150 × g for 12 h. Bacteria were transferred to fresh MHB at a ratio of 1% (vol/vol) and incubated to reach a logarithmic growth phase. Then, 50 μL of a bacterial suspension at 4 × 10^6 CFU/mL was added to each well. […]

[3] = tested on: Pseudomonas aeruginosa PAO1; format: cell-based; settings: PAO1, 2 h
Procedure: as §1

[4] = tested on: Streptococcus agalactiae ATCC 13813; format: cell-based; settings: ATCC 13813, 2 h
Procedure: as §1

[5] = tested on: Klebsiella pneumoniae CMCC46117; format: cell-based; settings: CMCC46117, 2 h
Procedure: as §1

[6] = tested on: Aeromonas hydrophila ATCC 7966; format: cell-based; settings: ATCC 7966, 2 h
Procedure: as §1

[7] = tested on: Streptococcus pneumoniae ATCC 49619; format: cell-based; settings: ATCC 49619, 2 h
Procedure: as §1

[8] = tested on: Staphylococcus aureus ATCC 25923; format: cell-based; settings: ATCC 25923, 2 h
Procedure: as §1

P. aeruginosa FRD1 = format: cell-based, Pseudomonas aeruginosa; settings: FRD1, 2 h
Procedure: as §1

[9] = tested on: Methicillin-resistant S. aureus USA300; format: cell-based, Staphylococcus aureus; settings: USA300, 2 h
Procedure: as §1

[10] = tested on: Methicillin-resistant S. aureus ATCC 43300; format: cell-based, Staphylococcus aureus; settings: ATCC 43300, 2 h
Procedure: as §1

E. coli ATCC 25922 = assay: SYTOX green membrane permeability assay; format: cell-based, Escherichia coli; settings: E. coli ATCC 25922, 5 μM SYTOX green, read every 1 min
Procedure: The SYTOX green staining assay was performed to assess peptide-associated membrane damage ([47], [52]). E. coli ATCC 25922 and S. aureus ATCC 25923 cells in the mid-logarithmic phase were collected, washed thrice, and resuspended (5 × 10^7 CFU/mL) in buffer B (10 mM Tris-HCl, pH 7.4, at 25°C). The bacterial suspensions were mixed with 5 μM SYTOX green and incubated for 15 min at room temperature in the dark. Then, the mixtures were added to black, clear-bottom 96-well plates at a density of 100 μL/well. After peptide addition, SYTOX green uptake was monitored using an EnSpire multimode plate reader (PerkinElmer, Singapore) with an excitation wavelength of 485 nm and an emission wavelength of 520 nm. Each measurement interval was 1 min, totaling 30 to 60 times. Melittin was used as the positive control, while bovine serum albumin (BSA) was the negative control.

[11] = tested on: P. aeruginosa FRD1 biofilm; assay: Biofilm inhibition assay (crystal violet); format: cell-based, Pseudomonas aeruginosa; settings: P. aeruginosa FRD1, 6.25 μg/mL (0.5× MIC), 37°C 24 h, triplicate
Procedure: In vitro static biofilm models have been reported in many studies ([45][–][47]). A Pseudomonas aeruginosa mucoid strain, FRD1, isolated from a cystic fibrosis patient, was used for the biofilm inhibition and eradication assay. The FRD1 strain was shock cultured to logarithmic growth stage at 37°C and 150 × g. After cleaning using PBS and centrifuging thrice, the bacteria were resuspended in MHB medium (with 0.2% glucose) and gradient diluted to an OD600 value of ~0.01.
For the biofilm inhibition assay, 90-μL amounts of bacterial suspensions and 10-μL amounts of increasing concentrations of the peptide were added to a 96-well plate and coincubated at 37°C for 24 h. Then, bacterial biofilms were quantified as follows: (i) planktonic bacteria were removed by washing thrice using PBS, (ii) biofilm bacteria were fixed in 100 μL of 4% paraformaldehyde at room temperature for 15 min and (iii) stained with 100 μL of 0.1% crystal violet for 30 min, (iv) the dye was removed, followed by washing twice using PBS, adding 200 μL of 95% ethanol to each well to dissolve the crystal violet, and finally, (v) absorbance was measured at 590 nm using an EnSpire multimode plate reader (PerkinElmer, Singapore).

[12] = tested on: methicillin-resistant S. aureus standard strain USA300; assay: Neutropenic mouse thigh infection model; format: in vivo; settings: neutropenic BALB/c mice, 300 μg i.p. at 2 h postinfection
Procedure: Female BALB/c mice were used to construct a neutropenic murine thigh infection model as previously published ([48][–][50]). Briefly, mice (n = 9/group) were rendered neutropenic by consecutive intraperitoneal injections of 150 and 100 mg/kg of body weight cyclophosphamide at 4 and 1 day before bacterial injection ([51]). An S. aureus USA300 inoculum (~1.5 × 10^6 CFU/mL) was prepared by diluting logarithmic phase bacteria with fresh MHB. Each mouse was infected by intramuscular injection of 0.1 mL of the inoculum (~1.5 × 10^5 CFU) into the right thigh muscles. At 2 h postinfection, 0.1 mL of lcCCL28-25 peptide (300 μg) or vancomycin hydrochloride (300 μg, 15 mg/kg) was administered by intraperitoneal injection. The control group was injected with an equal volume of PBS. Untreated control mice were sacrificed at the start of treatment to establish the baseline bacterial burden. Mice in the three treatment groups (PBS, vancomycin, and lcCCL28-25) were sacrificed at 48 h postinfection. Their right thighs were aseptically harvested, placed in sterile saline and homogenized using a Bioprep-6 homogenizer (Allsheng, Hangzhou, China). After being serially diluted to 1:10 in sterile saline, 100-μL amounts of tissue suspensions at various concentrations were plated on LB agar to determine bacterial counts after incubation at 37°C for 24 h.

For `CSCC[C@H](NC(=O)[C@H](CCCNC(=N)N)NC(=O)[C@H](CCCCN)NC(=O)[C@H](CC(C)C)NC(=O)[C@H](CCCCN)NC(=O)[C@H](CCCNC(=N)N)NC(=O)[C@H](CCCCN)NC(=O)[C@@H](NC(=O)[C@H](CCCCN)NC(=O)[C@@H]1CCCN1C(=O)[C@H](Cc1c[nH]cn1)NC(=O)[C@H](C)N)C(C)C)C(=O)N[C@@H](CCC(N)=O)C(=O)N[C@@H](CCCNC(=N)N)C(=O)N[C@@H](CCCCN)C(=O)N[C@@H](CCCCN)C(=O)N[C@@H](CC(=O)O)C(=O)NCC(=O)N[C@@H](CCCCN)C(=O)N[C@@H](CCC(N)=O)C(=O)N[C@@H](CCCCN)C(=O)N[C@@H](CCCNC(=N)N)C(=O)N[C@@H](Cc1c[nH]cn1)C(=O)O` [omCCL28-like-23] (H-AHPKVKRKLKRMQRKKDGKQKRH-OH; N-terminus and C-terminus assumed), which “solubility in 50% TFE solution” value [1] is on record?
Its value is “insoluble”.

And the MIC [2]?
The MIC was 12.50 µg/mL (≈ 4.34 µM).

And the MIC [3]?
The MIC was 25.00 µg/mL (≈ 8.67 µM).

What about the MIC [4] of the same molecule?
Its MIC is 12.50 µg/mL (≈ 4.34 µM).

What about the MIC [5] of the same molecule?
Its MIC is over 50.00 µg/mL.

What about the MIC [6] of the same molecule?
Its MIC is over 50.00 µg/mL.

And the MIC [7]?
The MIC was 25.00 µg/mL (≈ 8.67 µM).

What about the MIC [8] of the same molecule?
Its MIC is 12.50 µg/mL (≈ 4.34 µM).

And the MIC (P. aeruginosa FRD1)?
Its MIC is 25.00 µg/mL (≈ 8.67 µM).

What about the MIC [9] of the same molecule?
The MIC was 12.50 µg/mL (≈ 4.34 µM).

What about the MIC [10] of the same molecule?
The MIC was 25.00 µg/mL (≈ 8.67 µM).

And the “SYTOX green fluorescence intensity” value (E. coli ATCC 25922)?
Its value is “increased rapidly within 20 min”.

What does the source list for `CC[C@H](C)[C@H](NC(=O)[C@H](CCC(N)=O)NC(=O)[C@H](CCSC)NC(=O)[C@H](C)NC(=O)[C@@H](NC(=O)CNC(=O)[C@H](CC(C)C)NC(=O)[C@@H](NC(=O)[C@H](CCCCN)NC(=O)[C@H](CCCCN)NC(=O)[C@@H](NC(=O)[C@H](CCCNC(=N)N)NC(=O)[C@@H]1CCCN1C(=O)[C@H](CC(=O)O)NC(=O)[C@H](C)N)C(C)C)C(C)C)C(C)C)C(=O)N[C@@H](CCCNC(=N)N)C(=O)N[C@@H](CCCCN)C(=O)N[C@@H](C)C(=O)N[C@@H](CCC(N)=O)C(=O)N[C@@H](CC(C)C)C(=O)N[C@@H](CCSC)C(=O)N[C@@H](CCCNC(=N)N)C(=O)N[C@@H](CCC(=O)O)C(=O)N[C@@H](CCCCN)C(=O)N[C@@H](CC(C)C)C(=O)N[C@@H](CC(N)=O)C(=O)N[C@@H](CO)C(=O)N[C@H](C(=O)N[C@@H](CCSC)C(=O)N[C@@H](CCCNC(=N)N)C(=O)N[C@@H](CCCNC(=N)N)C(=O)O)[C@@H](C)CC` [omCK11-31] (H-ADPRVKKVLGVAMQIRKAQLMREKLNSIMRR-OH; N-terminus and C-terminus assumed)?
MIC [2]: 12.50 µg/mL (≈ 3.44 µM); MIC [3]: 25.00 µg/mL (≈ 6.87 µM); MIC [4]: 12.50 µg/mL (≈ 3.44 µM); MIC [5]: 25.00 µg/mL (≈ 6.87 µM); MIC [6]: >50.00 µg/mL; MIC [7]: 12.50 µg/mL (≈ 3.44 µM); MIC [8]: 12.50 µg/mL (≈ 3.44 µM); MIC (P. aeruginosa FRD1): 12.50 µg/mL (≈ 3.44 µM); MIC [9]: 12.50 µg/mL (≈ 3.44 µM); MIC [10]: 12.50 µg/mL (≈ 3.44 µM); reduction of biofilm formation [11]: ~ 45%; SYTOX green fluorescence intensity (E. coli ATCC 25922): fluorescence trends similar to the trends in E. coli cells treated with lcCCL28-25

With `CN[C@H](CC(C)C)C(=O)N[C@H]1C(=O)N[C@@H](CC(N)=O)C(=O)N[C@H]2C(=O)N[C@H]3C(=O)N[C@H](C(=O)N[C@H](C(=O)O)c4cc(O)cc(O)c4-c4cc3ccc4O)[C@H](O)c3ccc(c(Cl)c3)Oc3cc2cc(c3O[C@@H]2O[C@H](CO)[C@@H](O)[C@H](O)[C@H]2O[C@H]2C[C@](C)(N)[C@H](O)[C@H](C)O2)Oc2ccc(cc2Cl)[C@H]1O` [vancomycin, vancomycin hydrochloride, reference compound] as the molecule, how does the “reduction in average bacterial load in thighs versus control group” value ([12]; S. aureus USA300 i.m., 48 h postinfection) read?
The value was 1.30 log10 CFU/g.

And the “mice that died after 48 h of infection” value ([12]; n = 9/group, three died in PBS group)?
The value was “none”.
